In patent US8906904B2, “Alkoxy pyrazoles as soluble guanylate cyclase activators” (Boehringer Ingelheim International GmbH, priority 2012, dated 2014):
Values after ≈ are worked out from the molar mass of the structure shown.

Experiments:
[1] = Assessment of solubility (McIlvaine buffers, 24 h shake, UPLC-UV); type: physicochemical; settings: kinetic from dmso stock
How it was run: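 Compounds from 10 mM DMSO stocks were shaken for 24 h at room temperature in McIlvaine buffers at pH 2.2, 4.5 and 6.8 (2.5% v/v DMSO final), then filtered. Filtrates were quantified by UPLC-UV at 254 nm against a 50:50 acetonitrile/water reference assumed fully dissolved, as a single determination.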

[2] = human liver microsome (HLM) metabolic stability assay; type: in vitro ADME; settings: human liver microsomes; % hepatic blood flow calculated from t1/2
How it was run: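 Compounds at 1 uM incubated with human liver microsomes plus NADPH at 37° C., sampled at 0, 5, 15, 30 and 60 min into cold acetonitrile and quantified by LC/MS/MS. t½ from the slope of ln % remaining vs time; CLint, CLh and % Qh derived from it (n=1).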

Row | solubility at 24 h ([1]; pH 2.2, aqueous buffer) | solubility at 24 h ([1]; pH 4.5, aqueous buffer) | solubility at 24 h ([1]; pH 6.8, aqueous buffer) | HLM (% Qh) [2] | SMILES
1 | 100 µg/mL (≈ 172 µM) | 79 µg/mL (≈ 136 µM) | 92 µg/mL (≈ 158 µM) | <24 % Qh | CCOc1c(C(=O)O)cnn1-c1cccc(-c2cccc(C)c2OCc2ccc3c(c2)CCCN(C2CCCOC2)C3)n1 (stereo not drawn) [Compound 245]
2 | 95 µg/mL (≈ 155 µM) | 82 µg/mL (≈ 134 µM) | 78 µg/mL (≈ 127 µM) | <24 % Qh | CCOc1c(C(=O)O)cnn1-c1cccc(-c2cccc(C)c2OCc2ccc3c(c2C)CCN(C[C@@H]2COCCO2)CC3)n1 [Compound 211]
3 | 100 µg/mL (≈ 167 µM) | 82 µg/mL (≈ 137 µM) | 81 µg/mL (≈ 135 µM) | <24 % Qh | CCOc1c(C(=O)O)cnn1-c1cccc(-c2cccc(C)c2OCc2cc(C)c3c(c2)CCN(CC2COCCO2)C3)n1 (stereo not drawn) [Compound 243]
4 | 95 µg/mL (≈ 181 µM) | 76 µg/mL (≈ 145 µM) | 76 µg/mL (≈ 145 µM) | <24 % Qh | COc1c(C(=O)O)cnn1-c1cccc(-c2cccc(C)c2OCc2ccc3c(c2)CCN(CC2CC2)C3)n1 [Compound 24]
5 | 86 µg/mL (≈ 141 µM) | 70 µg/mL (≈ 115 µM) | 76 µg/mL (≈ 124 µM) | <24 % Qh | CCOc1c(C(=O)O)cnn1-c1cccc(-c2cccc(C)c2OCc2ccc3c(c2C)CCN(C[C@@H]2CCCCO2)CC3)n1 [Compound 215]
6 | 92 µg/mL (≈ 150 µM) | 79 µg/mL (≈ 129 µM) | 75 µg/mL (≈ 122 µM) | <24 % Qh | CCOc1c(C(=O)O)cnn1-c1cccc(-c2cccc(C)c2OCc2ccc3c(c2C)CCN(C[C@H]2COCCO2)CC3)n1 [Compound 212]
7 | 110 µg/mL (≈ 203 µM) | 88 µg/mL (≈ 163 µM) | 90 µg/mL (≈ 166 µM) | <24 % Qh | COc1c(C(=O)O)cnn1-c1cccc(-c2cccc(C)c2OCc2ccc3c(c2)CCN(C2CCOC2)C3)n1 (stereo not drawn) [Compound 15]
8 | 100 µg/mL (≈ 172 µM) | 80 µg/mL (≈ 137 µM) | 73 µg/mL (≈ 125 µM) | <24 % Qh | CCOc1c(C(=O)O)cnn1-c1cccc(-c2cccc(C)c2OCc2ccc3c(c2C)CCN(C[C@H]2CCOC2)C3)n1 [Compound 193]
9 | 110 µg/mL (≈ 184 µM) | 96 µg/mL (≈ 161 µM) | 83 µg/mL (≈ 139 µM) | <24 % Qh | CCOc1c(C(=O)O)cnn1-c1cccc(-c2cccc(C)c2OCc2ccc3c(c2C)CCN(C[C@@H]2CCCCO2)C3)n1 [Compound 236]
10 | 92 µg/mL (≈ 157 µM) | 69 µg/mL (≈ 118 µM) | 67 µg/mL (≈ 115 µM) | <24 % Qh | COc1c(C(=O)O)cnn1-c1cccc(-c2cccc(C)c2OCc2cc(C)c3c(c2)CCN(CC2COCCO2)C3)n1 (stereo not drawn) [Compound 240]
11 | 100 µg/mL (≈ 176 µM) | 85 µg/mL (≈ 149 µM) | 80 µg/mL (≈ 141 µM) | <24 % Qh | COc1c(C(=O)O)cnn1-c1cccc(-c2cccc(C)c2OCc2ccc3c(c2C)CCN(C[C@@H]2CCOC2)C3)n1 [Compound 191]
12 | 100 µg/mL (≈ 168 µM) | 83 µg/mL (≈ 139 µM) | 88 µg/mL (≈ 147 µM) | 29 % Qh | CCOc1c(C(=O)O)cnn1-c1cccc(-c2cccc(C)c2OCc2ccc3c(c2C)CCN(C[C@@H]2CCCO2)CC3)n1 [Compound 235]
13 | 95 µg/mL (≈ 163 µM) | 78 µg/mL (≈ 134 µM) | 81 µg/mL (≈ 139 µM) | <24 % Qh | CCOc1c(C(=O)O)cnn1-c1cccc(-c2cccc(C)c2OCc2ccc3c(c2C)CCN([C@H]2CCOC2)CC3)n1 [Compound 225]
14 | 81 µg/mL (≈ 133 µM) | 64 µg/mL (≈ 105 µM) | 69 µg/mL (≈ 113 µM) | <24 % Qh | CCOc1c(C(=O)O)cnn1-c1cccc(-c2cccc(C)c2OCc2ccc3c(c2C)CCN(C[C@H]2CCCCO2)CC3)n1 [Compound 214]
15 | 81 µg/mL (≈ 139 µM) | 68 µg/mL (≈ 117 µM) | 69 µg/mL (≈ 118 µM) | <24 % Qh | COc1c(C(=O)O)cnn1-c1cccc(-c2cccc(C)c2OCc2ccc3c(c2C)CCN(C[C@@H]2CCCO2)CC3)n1 [Compound 223]
16 | 98 µg/mL (≈ 164 µM) | 73 µg/mL (≈ 122 µM) | 86 µg/mL (≈ 144 µM) | 26 % Qh | CCOc1c(C(=O)O)cnn1-c1cccc(-c2cccc(C)c2OCc2ccc3c(c2C)CCN(C[C@H]2CCCO2)CC3)n1 [Compound 233]
17 | 120 µg/mL (≈ 204 µM) | 97 µg/mL (≈ 165 µM) | 91 µg/mL (≈ 155 µM) | <24 % Qh | COc1c(C(=O)O)cnn1-c1cccc(-c2cccc(C)c2OCc2ccc3c(c2F)CCN(C[C@H]2COCCO2)C3)n1 [Compound 234]
18 | 120 µg/mL (≈ 206 µM) | 96 µg/mL (≈ 165 µM) | 92 µg/mL (≈ 158 µM) | <24 % Qh | COc1c(C(=O)O)cnn1-c1cccc(-c2cccc(C)c2OCc2ccc3c(c2C)CCN(C[C@H]2CCCCO2)C3)n1 [Compound 199]

Row | solubility at 24 h ([1]; pH 2.2, aqueous buffer) | solubility at 24 h ([1]; pH 4.5, aqueous buffer) | solubility at 24 h ([1]; pH 6.8, aqueous buffer) | HLM (% Qh) [2] | SMILES
19 | 110 µg/mL (≈ 203 µM) | 83 µg/mL (≈ 154 µM) | 99 µg/mL (≈ 183 µM) | <24 % Qh | COc1c(C(=O)O)cnn1-c1cccc(-c2cccc(C)c2OCc2cc(C)c3c(c2)CCN(C2COC2)C3)n1 [Compound 186]
20 | 89 µg/mL (≈ 160 µM) | 77 µg/mL (≈ 139 µM) | 73 µg/mL (≈ 132 µM) | <24 % Qh | COc1c(C(=O)O)cnn1-c1cccc(-c2cccc(C)c2OCc2ccc3c(c2)CCN(C[C@@H]2CCOC2)C3)n1 [Compound 188]
21 | 120 µg/mL (≈ 204 µM) | 92 µg/mL (≈ 156 µM) | 87 µg/mL (≈ 148 µM) | <24 % Qh | COc1c(C(=O)O)cnn1-c1cccc(-c2cccc(C)c2OCc2ccc3c(c2F)CCN(C[C@@H]2COCCO2)C3)n1 [Compound 231]
22 | 100 µg/mL (≈ 168 µM) | 83 µg/mL (≈ 139 µM) | 87 µg/mL (≈ 146 µM) | 43 % Qh | CCOc1c(C(=O)O)cnn1-c1cccc(-c2cccc(C)c2OCc2ccc3c(c2C)CCN(CC2(C)COC2)CC3)n1 [Compound 190]
23 | 110 µg/mL (≈ 193 µM) | 87 µg/mL (≈ 152 µM) | 87 µg/mL (≈ 152 µM) | <24 % Qh | CCOc1c(C(=O)O)cnn1-c1cccc(-c2cccc(C)c2OCc2cc(C)c3c(c2)CCN(C(C)COC)C3)n1 (stereo not drawn) [Compound 210]
24 | 100 µg/mL (≈ 172 µM) | 79 µg/mL (≈ 136 µM) | 76 µg/mL (≈ 130 µM) | <24 % Qh | COc1c(C(=O)O)cnn1-c1cccc(-c2cc(C)cc(C)c2OCc2ccc3c(c2C)CCN(C2CCOCC2)C3)n1 [Compound 180]
25 | 110 µg/mL (≈ 188 µM) | 81 µg/mL (≈ 139 µM) | 81 µg/mL (≈ 139 µM) | <24 % Qh | COc1ccc(OCc2ccc3c(c2C)CCN(C2CCOCC2)C3)c(-c2cccc(-n3ncc(C(=O)O)c3OC)n2)c1 [Compound 182]
26 | 100 µg/mL (≈ 172 µM) | 73 µg/mL (≈ 125 µM) | 73 µg/mL (≈ 125 µM) | 40 % Qh | CCOc1c(C(=O)O)cnn1-c1cccc(-c2cccc(C)c2OCc2cc(C)c3c(c2)CCN(CC2(C)COC2)C3)n1 [Compound 200]
27 | 82 µg/mL (≈ 140 µM) | 47 µg/mL (≈ 80.1 µM) | 57 µg/mL (≈ 97.2 µM) | <24 % Qh | CCOc1c(C(=O)O)cnn1-c1cccc(-c2cccc(C)c2OCc2ccc3c(c2C)CCN(CC2(F)COC2)C3)n1 [Compound 208]
28 | 100 µg/mL (≈ 167 µM) | 83 µg/mL (≈ 139 µM) | 82 µg/mL (≈ 137 µM) | <24 % Qh | CCOc1c(C(=O)O)cnn1-c1cccc(-c2cccc(C)c2OCc2ccc3c(c2C)CCN(CC2COCCO2)C3)n1 (stereo in doubt) [Compound 185, 1-{6-[2-(2-(S)-1-[1,4]Dioxan-2-ylmethyl-5-methyl-1,2,3,4-tetrahydro-isoquinolin-6-ylmethoxy)-3-methyl-phenyl]-pyridin-2-yl}-5-ethoxy-1H-pyrazole-4-carboxylic acid]
29 | 93 µg/mL (≈ 156 µM) | 74 µg/mL (≈ 124 µM) | 63 µg/mL (≈ 106 µM) | <24 % Qh | CCOc1c(C(=O)O)cnn1-c1cccc(-c2cccc(C)c2OCc2ccc3c(c2C)CCN(C[C@H]2CCCCO2)C3)n1 [Compound 232]
30 | 100 µg/mL (≈ 179 µM) | 75 µg/mL (≈ 134 µM) | 81 µg/mL (≈ 145 µM) | <24 % Qh | COc1c(C(=O)O)cnn1-c1cccc(-c2cccc(C)c2OCc2cc(F)c3c(c2)CCN([C@@H]2CCOC2)C3)n1 [Compound 253]
31 | 110 µg/mL (≈ 193 µM) | 83 µg/mL (≈ 146 µM) | 90 µg/mL (≈ 158 µM) | <24 % Qh | COc1c(C(=O)O)cnn1-c1cccc(-c2cccc(C)c2OCc2ccc3c(c2C)CCN(CC2(C)COC2)C3)n1 [Compound 28]
32 | 110 µg/mL (≈ 189 µM) | 83 µg/mL (≈ 142 µM) | 79 µg/mL (≈ 136 µM) | <24 % Qh | CCOc1c(C(=O)O)cnn1-c1cccc(-c2cccc(C)c2OCc2cc(C)c3c(c2)CCN([C@H]2CCCOC2)C3)n1 [Compound 197]
33 | 94 µg/mL (≈ 169 µM) | 67 µg/mL (≈ 121 µM) | 93 µg/mL (≈ 168 µM) | <24 % Qh | CCc1cc(COc2c(C)cccc2-c2cccc(-n3ncc(C(=O)O)c3OC)n2)cc2c1CN(C1COC1)CC2 [Compound 249]
34 | 96 µg/mL (≈ 167 µM) | 62 µg/mL (≈ 108 µM) | 60 µg/mL (≈ 104 µM) | <24 % Qh | COc1c(C(=O)O)cnn1-c1cccc(-c2cccc(C)c2OCc2ccc3c(c2Cl)CCN(CC(C)(C)C)C3)n1 [Compound 21]
35 | 90 µg/mL (≈ 162 µM) | 75 µg/mL (≈ 135 µM) | 71 µg/mL (≈ 128 µM) | <24 % Qh | COc1c(C(=O)O)cnn1-c1cccc(-c2cccc(C)c2OCc2ccc3c(c2)CN(CC2COCCO2)C3)n1 (stereo not drawn) [Compound 247]
36 | 110 µg/mL (≈ 203 µM) | 81 µg/mL (≈ 150 µM) | 84 µg/mL (≈ 155 µM) | <24 % Qh | COc1c(C(=O)O)cnn1-c1cccc(-c2ccccc2OCc2ccc3c(c2)CCN(C2CCOCC2)C3)n1 [Compound 209]
